Residue numbers refer to the chain shown, from its start. Where two headings read alike, the source gives them in different places.
Columns and labels:
M4 mAChR L190F = target: T1, M4 mAChR L190F (Homo sapiens, UniProt P08173, L190F); experiment: [3H]-NMS radioligand dissociation binding, M4 mAChR L190F; parameters: unit not given here
T1 construct: expressed in transfected cells
T1 sequence (P08173 1-479 L190F): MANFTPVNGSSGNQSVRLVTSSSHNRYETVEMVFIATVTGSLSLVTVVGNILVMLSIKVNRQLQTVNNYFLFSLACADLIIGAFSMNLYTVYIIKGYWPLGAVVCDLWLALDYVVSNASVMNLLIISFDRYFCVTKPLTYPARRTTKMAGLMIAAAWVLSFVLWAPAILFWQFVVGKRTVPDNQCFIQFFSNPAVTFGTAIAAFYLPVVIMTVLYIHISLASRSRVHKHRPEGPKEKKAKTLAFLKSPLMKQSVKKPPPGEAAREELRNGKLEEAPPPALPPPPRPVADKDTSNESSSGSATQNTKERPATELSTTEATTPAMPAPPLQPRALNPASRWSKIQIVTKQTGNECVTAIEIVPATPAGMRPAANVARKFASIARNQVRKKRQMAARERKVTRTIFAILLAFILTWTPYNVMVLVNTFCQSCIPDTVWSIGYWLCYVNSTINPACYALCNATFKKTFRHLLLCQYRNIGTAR
Protocol: (§1) Flp-In Chinese hamster ovary (CHO) (Thermo Fisher Scientific) cells stably expressing mAChR WTs or mutant constructs were cultured in Dulbecco’s modified Eagle’s medium (DMEM, Invitrogen) containing 5% foetal bovine serum (FBS; ThermoTrace) and […] of hygromycin (Roche) in a humidified incubator (37 °C, 5% CO2). Upon reaching confluence, media was removed, cells were washed with phosphate buffered saline (PBS) and harvested from tissue culture flasks using versene (PBS with 0.2 g EDTA). Cells were then pelleted through centrifugation at 350 × g for three minutes followed by resuspension in DMEM + 5% FBS. Cells were then either plated for an assay or reseeded into a tissue culture flask.

M4 mAChR Y92A = target: T2, M4 mAChR Y92A (Homo sapiens, UniProt P08173, Y92A); experiment: [3H]-NMS radioligand dissociation binding, M4 mAChR Y92A; parameters: [3H]-NMS binding remaining vs Total Binding, MEAN: unit not given here; details: for [3H]-NMS binding remaining vs Total Binding, MEAN: M4 Y92A mAChR
T2 construct: expressed in transfected cells
T2 sequence (P08173 1-479 Y92A): T1 sequence (P08173 1-479 L190F) with Y92A, F190L
Protocol: as §1

M4 mAChR Y89A = target: T3, M4 mAChR Y89A (Homo sapiens, UniProt P08173, Y89A); experiment: [3H]-NMS radioligand dissociation binding, M4 mAChR Y89A; parameters: [3H]-NMS binding remaining vs Total Binding, MEAN: unit not given here; details: for [3H]-NMS binding remaining vs Total Binding, MEAN: M4 Y89A mAChR; for effect on [3H]-NMS dissociation (in words): M4 mAChR Y89A mutant
T3 construct: expressed in transfected cells
T3 sequence (P08173 1-479 Y89A): T1 sequence (P08173 1-479 L190F) with Y89A, F190L
Protocol: as §1

M4 mAChR = target: T4, M4 mAChR (Homo sapiens, UniProt P08173)
T4 sequence (P08173 1-479): T1 sequence (P08173 1-479 L190F) with F190L

[1] = test system: M4 mAChR knockout (KO) mice / M1 mAChR KO mice; details: cited from earlier work
[2] = + 10uM LY2033 (Allosteric Ligand), Time 0 min (Total Binding)
[3] = + 10uM LY2033 (Allosteric Ligand), Time 30 min
[4] = + 10uM LY2033 (Allosteric Ligand), Time 60 min
[5] = + 10uM LY2033 (Allosteric Ligand), Time 90 min
[6] = + 10uM LY2033 (Allosteric Ligand), Time 120 min
[7] = + 10uM LY2033 (Allosteric Ligand), Time 180 min
[8] = + 10uM LY2033 (Allosteric Ligand), Time 300 min

What does the source list for `COc1nc2sc(C(=O)NC3CC3)c(N)c2c(C)c1Cl` [LY2033298]?
[3H]-NMS binding remaining vs Total Binding, MEAN (M4 mAChR L190F; [2]): 100; [3H]-NMS binding remaining vs Total Binding, MEAN (M4 mAChR L190F; [3]): 104.676; [3H]-NMS binding remaining vs Total Binding, MEAN (M4 mAChR L190F; [4]): 101.661; [3H]-NMS binding remaining vs Total Binding, MEAN (M4 mAChR L190F; [5]): 96.3234; [3H]-NMS binding remaining vs Total Binding, MEAN (M4 mAChR L190F; [6]): 92.5099; [3H]-NMS binding remaining vs Total Binding, MEAN (M4 mAChR L190F; [7]): 89.5439; [3H]-NMS binding remaining vs Total Binding, MEAN (M4 mAChR L190F; [8]): 70.7364; [3H]-NMS binding remaining vs Total Binding, MEAN (M4 mAChR Y92A; [2]): 100; [3H]-NMS binding remaining vs Total Binding, MEAN (M4 mAChR Y92A; [3]): 108.824; [3H]-NMS binding remaining vs Total Binding, MEAN (M4 mAChR Y92A; [4]): 96.2598; [3H]-NMS binding remaining vs Total Binding, MEAN (M4 mAChR Y92A; [5]): 94.6146; [3H]-NMS binding remaining vs Total Binding, MEAN (M4 mAChR Y92A; [6]): 83.2371; [3H]-NMS binding remaining vs Total Binding, MEAN (M4 mAChR Y92A; [7]): 74.311; [3H]-NMS binding remaining vs Total Binding, MEAN (M4 mAChR Y92A; [8]): 49.3255; [3H]-NMS binding remaining vs Total Binding, MEAN (M4 mAChR Y89A; [2]): 100.077; [3H]-NMS binding remaining vs Total Binding, MEAN (M4 mAChR Y89A; [3]): 111.396; [3H]-NMS binding remaining vs Total Binding, MEAN (M4 mAChR Y89A; [4]): 121.467; [3H]-NMS binding remaining vs Total Binding, MEAN (M4 mAChR Y89A; [5]): 123.726; [3H]-NMS binding remaining vs Total Binding, MEAN (M4 mAChR Y89A; [6]): 111.892; [3H]-NMS binding remaining vs Total Binding, MEAN (M4 mAChR Y89A; [7]): 116.814; [3H]-NMS binding remaining vs Total Binding, MEAN (M4 mAChR Y89A; [8]): 102.533; effect on [3H]-NMS dissociation (in words) (M4 mAChR Y89A): the same effect was observed

With `CCCCCCOc1nsnc1C1=CCCN(C)C1` [xanomeline] as the compound, how does the “rebinding of [3H]-NMS (in words)” value (M4 mAChR; 10 µM xanomeline alone) read?
Its value is “prevented the rebinding”.

And the “[3H]-NMS dissociation (in words)” value (M4 mAChR; 100 µM xanomeline alone)?
The value was “slowed to the same extent”.

What about the “[3H]-NMS binding remaining vs Total Binding, MEAN” value (M4 mAChR L190F; +100uM Xano, Time 90 min) of the same compound?
The value was 72.792.

And the “[3H]-NMS binding remaining vs Total Binding, MEAN” value (M4 mAChR L190F; +100uM Xano, Time 180 min)?
The value was 51.0423.

And the “[3H]-NMS binding remaining vs Total Binding, MEAN” value (M4 mAChR L190F; +100uM Xano, Time 300 min)?
Its value is 24.2929.

And the antipsychotic efficacy ([1]; M1 mAChR KO mice)?
Its antipsychotic efficacy is “partially reduced”.

What about the antipsychotic efficacy ([1]; M4 mAChR knockout (KO) mice) of the same compound?
The antipsychotic efficacy was “completely abolished”.

What about the “[3H]-NMS binding remaining vs Total Binding, MEAN” value (M4 mAChR Y92A; +100uM Xano, Time 30 min) of the same compound?
Its value is 84.6188.

What about the “[3H]-NMS binding remaining vs Total Binding, MEAN” value (M4 mAChR Y92A; +100uM Xano, Time 60 min) of the same compound?
Its value is 76.9087.

And the “[3H]-NMS binding remaining vs Total Binding, MEAN” value (M4 mAChR Y92A; +100uM Xano, Time 90 min)?
The value was 63.0845.

What about the “[3H]-NMS binding remaining vs Total Binding, MEAN” value (M4 mAChR Y92A; +100uM Xano, Time 120 min) of the same compound?
The value was 54.6505.

And the “[3H]-NMS binding remaining vs Total Binding, MEAN” value (M4 mAChR Y92A; +100uM Xano, Time 300 min)?
The value was 15.7486.

What about the “effect on [3H]-NMS dissociation (in words)” value (M4 mAChR Y92A; M4 mAChR Y92A mutant) of the same compound?
Its value is “loss in xanomeline modulation”.

And the “[3H]-NMS binding remaining vs Total Binding, MEAN” value (M4 mAChR Y89A; +100uM Xano, Time 30 min)?
The value was 98.3579.

And the “[3H]-NMS binding remaining vs Total Binding, MEAN” value (M4 mAChR Y89A; +100uM Xano, Time 60 min)?
Its value is 102.694.

What about the “[3H]-NMS binding remaining vs Total Binding, MEAN” value (M4 mAChR Y89A; +100uM Xano, Time 90 min) of the same compound?
The value was 104.852.

And the “[3H]-NMS binding remaining vs Total Binding, MEAN” value (M4 mAChR Y89A; +100uM Xano, Time 120 min)?
Its value is 120.479.

What about the “[3H]-NMS binding remaining vs Total Binding, MEAN” value (M4 mAChR Y89A; +100uM Xano, Time 300 min) of the same compound?
The value was 77.2149.

And the “effect on [3H]-NMS dissociation (in words)” value (M4 mAChR Y89A)?
Its value is “improved ability”.
